Experimental data reported in US20170112791A1, “SOLID FORMULATIONS CONTAINING OMEGA-3 AND RESVERATROL” (SIGMA-TAU INDUSTRIE FARMACEUTICHE RIUNITE S.P.A., priority 2014, published 2017).

Key:
[1] = Stability after autoxidation induced by radiation (light, 24 hours); format: physicochemical; details: initial tests (Tables 2 and 3: radiation and high temperature)
Experimental: (§1) The HPLC Analysis was the analysis performed in order to evaluate the stability of the formulations. It was performed using a Column Symmetry C-18 4.6×150 mm, a solution of CH3CN/CH3OH/H2O 45/45/10 as eluent, a flow of 1 ml/min and a Mass spectrometry Detector. The percent amount of EPA and DHA detected are expressed as % by weight. Other stability tests were also performed:
Stability analysis after autoxidation induced by radiation and by high temperature was performed according to the following procedure: • Autoxidation induced by radiation: an amount of 100 mg of the formulation is dispersed in a 5 cm diameter Petri dish, which is placed at a distance of 12 cm from the light source and exposed to light for 24 hours. The light source is constituted by a 13 W lamp with an emission spectrum of from 300 to 640 nm, with peaks at: 440, 490, 540, 590 and 610 nm. The test is carried out at 22° C. at 60% RH • autoxidation induced by high temperature: an amount of 100 mg of the formulation is placed in an amber container and put in a stove at 60° C. for 1 month

[2] = Stability analysis of solid formulations on storage (HPLC recovery of EPA and DHA); format: physicochemical
Experimental: The formulations were divided into 3 groups and left respectively for 3 and 6 months at 25° C. at 60% RH (relative humidity), for 3 and 6 months at 30° C. at 60% RH or for 3 and 6 months at 40° C. at 70% RH.
as §1
n-3 PUFA were added to Neusilin U.S.-2 in small portions, manually mixing up to obtain a homogeneous solid. Stability tests are carried out at 25° C. at 60% RH, 30° C. at 60% RH and 40° C. at 70% RH as described above for 1, 3 and 6 months.

antioxidant power with respect of that of α-tocopherol ([2]; from recovery after 3 months at 40° C., 1% antioxidant) | SMILES | improvement of stability of EPA and DHA in the initial tests [1] | ability to maintain stable solid formulations containing omega-3 for longer periods ([2]; data of Table 4, 3 months)
 | CCCCCCCCCCCCCCCC(=O)OC[C@H](O)[C@H]1OC(=O)C(O)=C1O [Ascorbyl palmitate, ascorbyl palmitate] | able to improve the stability | 
 | COC1=C(OC)C(=O)C(C/C=C(\C)CC/C=C(\C)CC/C=C(\C)CC/C=C(\C)CC/C=C(\C)CC/C=C(\C)CC/C=C(\C)CC/C=C(\C)CC/C=C(\C)CCC=C(C)C)=C(C)C1=O [Coenzyme Q10] | able to improve the stability | 
twice | Oc1ccc(/C=C/c2cc(O)cc(O)c2)cc1 [Resveratrol, 3,5,4′-trihydroxy-trans-stilbene] | able to improve the stability | the only natural antioxidant able to maintain stable solid formulations containing omega-3 for longer periods
 | Cc1c(C)c2c(c(C)c1O)CC[C@@](C)(CCC[C@H](C)CCC[C@H](C)CCCC(C)C)O2 [α-tocopherol] | able to improve the stability | 
